Laboratory results published in US12673945B2, “3-((8-((1H-pyrazol-4-yl)amino)imidazo[1,2-a]pyridin-3-yl)ethinyl)-n-phenylbenzamide derivative, method for preparing same, and pharmaceutical composition containing same as active ingredient for prevention or treatment of cancer” (DAEGU-GYEONGBUK MEDICAL INNOVATION FOUNDATION, priority 2020, dated 2026).

Assays:
[1] = tested on: TCCS cells; experiment: human CML cell proliferation inhibition; assay type: cell-based; details: 72 hours, Cell Counting Kit-8
In short: (§1)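 Bcr-Abl TCCS and KOPM28 cells, plus their T315I-Bcr-Abl counterparts, are treated with compound (final 0–10 μM, 5-fold steps) for 72 h at 37 °C. Viability is measured by CCK-8 at 450 nm, and GI50 is computed as percent of DMSO control.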

[2] = tested on: T315I-TCCS cells; experiment: human CML cell proliferation inhibition; assay type: cell-based; details: 72 hours, Cell Counting Kit-8
In short: as §1

[3] = tested on: T315I-KOPM28 cells; experiment: human CML cell proliferation inhibition; assay type: cell-based; details: 72 hours, Cell Counting Kit-8
In short: as §1

[4] = tested on: KOPM28 cells; experiment: human CML cell proliferation inhibition; assay type: cell-based; details: 72 hours, Cell Counting Kit-8
In short: as §1

[5] = biological target: T1, CDC2L5 (Homo sapiens, UniProt Q14004); experiment: scanMAX Kinase panel (DiscoverX); assay type: binding
T1 construct: purchased DiscoverX scanMAX Kinase panel
Protocol: (§2) Among the example compounds of the present invention, the enzyme (kinase) selectivity of the selected compounds of Examples 1 and 4 was measured by requesting DiscoverX. At this time, the experiment was performed using a panel for scanMAX™ Kinase. The concentration of the drug treated to the enzyme was 1 μM in DMSO, and the percentage control (% control) was determined by the method shown in Equation 1 below. (Example Compound−Positive Control)/(Negative Control−Positive control)×100 [Equation 1]
In addition, if the enzyme selectivity of the compound of the present invention was less than the percentage control of 35% (<35%) for each enzyme, it was judged to have activity for the enzyme.

[6] = oral pharmacokinetic test; assay type: in vivo, ICR mice; details: ICR, mouse, plasma, 10 mg/kg, 10 mg/Kg PO
Protocol: To evaluate the pharmacokinetic properties in vivo, oral pharmacokinetic test was performed with the compounds of Comparative Examples 1 and 4 and Examples 1 and 4 using mice and rats, and the PK parameters are shown in Table 10.
ICR mice (6-7 weeks old) and SD rats (6-7 weeks old) were used for the test. The fasted group was fasted about 16 hours before oral administration, and the fed group was fasted about 4 hours before oral administration. The test drug for oral administration was used by dissolving the drug in a vehicle at a concentration of 1 mg/mL for use, and blood samples were collected (time point: 0.25, 0.5, 1, 2, 4, 8, 12, 24, 32, n=3) from the heart (mouse, 500 μL/time point) or jugular vein (rat, 120 μL/time point). Blood was centrifuged at 12,000 G at 4° C. for 2 minutes to separate plasma, and stored at −80° C. until analysis. • Vehicle A (NMP:PEG400=5:95) • Vehicle B (0.5% methyl cellulose) 6-2. Sampling and Pretreatment
To 20 μl of plasma, 180 μl of acetonitrile (including internal standard) was added. The mixture was vortexed and centrifuged for 5 minutes at 15,000 rpm at 4° C. The supernatant obtained after centrifugation was analyzed by LC-MS/MS.
PK parameters were calculated with a non-compartmental analysis model using Phoenix WinNonlin 6.4 version (Pharsight, USA) program.

[7] = biological target: T2, SRMS (Homo sapiens, UniProt Q9H3Y6); experiment: scanMAX Kinase panel (DiscoverX); assay type: binding; details: read-out: % Cont @ 1 uM
T2 construct: purchased DiscoverX scanMAX Kinase panel
Protocol: as §2

[8] = biological target: T3, CSK (Homo sapiens, UniProt P41240); experiment: scanMAX Kinase panel (DiscoverX); assay type: binding
T3 construct: purchased DiscoverX scanMAX Kinase panel
Protocol: as §2

[9] = biological target: T4, VEGFR2 (Homo sapiens, UniProt P35968); experiment: scanMAX Kinase panel (DiscoverX); assay type: binding; details: read-out: % Cont @ 1 uM
T4 construct: purchased DiscoverX scanMAX Kinase panel
Protocol: as §2

[10] = biological target: T5, FGFR1 (Homo sapiens, UniProt P11362); experiment: scanMAX Kinase panel (DiscoverX); assay type: binding; details: read-out: % Cont @ 1 uM
T5 construct: purchased DiscoverX scanMAX Kinase panel
Protocol: as §2

[11] = biological target: T6, LOK (Homo sapiens, UniProt O94804); experiment: scanMAX Kinase panel (DiscoverX); assay type: binding
T6 construct: purchased DiscoverX scanMAX Kinase panel
Protocol: as §2

[12] = biological target: T7, TIE2 (Homo sapiens, UniProt Q02763); experiment: scanMAX Kinase panel (DiscoverX); assay type: binding; details: read-out: % Cont @ 1 uM
T7 construct: purchased DiscoverX scanMAX Kinase panel
Protocol: as §2

[13] = biological target: T8, TIE1 (Homo sapiens, UniProt P35590); experiment: scanMAX Kinase panel (DiscoverX); assay type: binding; details: read-out: % Cont @ 1 uM
T8 construct: purchased DiscoverX scanMAX Kinase panel
Protocol: as §2

[14] = biological target: T9, TYK2(JH1domain-catalytic) (Homo sapiens, UniProt P29597); experiment: scanMAX Kinase panel (DiscoverX); assay type: binding
T9 construct: TYK2(JH1domain-catalytic); purchased DiscoverX scanMAX Kinase panel
Protocol: as §2

[15] = tested on: Parental (Ba/F3); experiment: Ba/F3 cell proliferation inhibition; assay type: cell-based; details: BaF3; 72 hours, Cell Counting Kit-8
In short: (§3)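 GI50 derived from CCK-8 absorbance at 450 nm (2 h development), expressed relative to DMSO vehicle. Cells (parental or T315I-Bcr-Abl Ba/F3, 1×10^4/well) received nine threefold-diluted concentrations, final 0 to 10 μM, for 72 h at 37 °C.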

[16] = tested on: T315I-Bcr-Abl (Ba/F3); experiment: Ba/F3 cell proliferation inhibition; assay type: cell-based; details: BaF3; 72 hours, Cell Counting Kit-8
In short: as §3

[17] = vehicle B (0.5% methyl cellulose)

T4 sequence (P35968 20-1356): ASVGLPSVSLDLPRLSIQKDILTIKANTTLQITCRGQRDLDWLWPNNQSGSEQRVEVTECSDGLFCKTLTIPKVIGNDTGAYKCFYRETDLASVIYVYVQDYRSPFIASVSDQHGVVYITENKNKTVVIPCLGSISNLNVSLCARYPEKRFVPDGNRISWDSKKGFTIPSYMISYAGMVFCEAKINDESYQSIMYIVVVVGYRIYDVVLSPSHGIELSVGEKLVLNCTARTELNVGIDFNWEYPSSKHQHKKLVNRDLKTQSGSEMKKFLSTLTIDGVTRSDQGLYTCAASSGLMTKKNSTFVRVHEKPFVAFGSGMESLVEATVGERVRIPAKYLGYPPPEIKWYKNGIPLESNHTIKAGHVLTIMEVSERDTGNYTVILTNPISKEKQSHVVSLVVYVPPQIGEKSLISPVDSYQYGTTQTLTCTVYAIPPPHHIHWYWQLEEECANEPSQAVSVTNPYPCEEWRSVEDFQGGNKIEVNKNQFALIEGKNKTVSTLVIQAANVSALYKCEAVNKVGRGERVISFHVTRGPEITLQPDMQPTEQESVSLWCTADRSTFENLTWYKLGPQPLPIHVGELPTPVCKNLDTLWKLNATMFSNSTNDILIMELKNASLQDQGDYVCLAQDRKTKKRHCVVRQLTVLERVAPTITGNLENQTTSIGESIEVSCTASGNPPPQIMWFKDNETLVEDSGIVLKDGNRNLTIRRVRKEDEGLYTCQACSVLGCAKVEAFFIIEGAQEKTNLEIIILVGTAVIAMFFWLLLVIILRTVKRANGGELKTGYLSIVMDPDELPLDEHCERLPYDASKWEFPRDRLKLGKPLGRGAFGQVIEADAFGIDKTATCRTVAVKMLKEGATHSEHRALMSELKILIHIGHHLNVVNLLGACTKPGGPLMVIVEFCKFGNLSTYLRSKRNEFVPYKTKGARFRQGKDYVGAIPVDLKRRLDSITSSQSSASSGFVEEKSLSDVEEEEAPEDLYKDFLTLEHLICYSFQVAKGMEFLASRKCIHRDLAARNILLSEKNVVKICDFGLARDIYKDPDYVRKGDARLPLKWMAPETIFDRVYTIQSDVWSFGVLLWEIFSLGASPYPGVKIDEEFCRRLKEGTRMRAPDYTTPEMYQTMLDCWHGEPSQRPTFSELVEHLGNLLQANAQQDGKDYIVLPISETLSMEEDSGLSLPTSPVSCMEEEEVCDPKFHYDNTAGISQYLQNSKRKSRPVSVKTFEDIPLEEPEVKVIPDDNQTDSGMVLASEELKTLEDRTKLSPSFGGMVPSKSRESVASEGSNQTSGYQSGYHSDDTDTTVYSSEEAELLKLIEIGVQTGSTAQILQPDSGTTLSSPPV
T6 sequence (O94804 whole entry): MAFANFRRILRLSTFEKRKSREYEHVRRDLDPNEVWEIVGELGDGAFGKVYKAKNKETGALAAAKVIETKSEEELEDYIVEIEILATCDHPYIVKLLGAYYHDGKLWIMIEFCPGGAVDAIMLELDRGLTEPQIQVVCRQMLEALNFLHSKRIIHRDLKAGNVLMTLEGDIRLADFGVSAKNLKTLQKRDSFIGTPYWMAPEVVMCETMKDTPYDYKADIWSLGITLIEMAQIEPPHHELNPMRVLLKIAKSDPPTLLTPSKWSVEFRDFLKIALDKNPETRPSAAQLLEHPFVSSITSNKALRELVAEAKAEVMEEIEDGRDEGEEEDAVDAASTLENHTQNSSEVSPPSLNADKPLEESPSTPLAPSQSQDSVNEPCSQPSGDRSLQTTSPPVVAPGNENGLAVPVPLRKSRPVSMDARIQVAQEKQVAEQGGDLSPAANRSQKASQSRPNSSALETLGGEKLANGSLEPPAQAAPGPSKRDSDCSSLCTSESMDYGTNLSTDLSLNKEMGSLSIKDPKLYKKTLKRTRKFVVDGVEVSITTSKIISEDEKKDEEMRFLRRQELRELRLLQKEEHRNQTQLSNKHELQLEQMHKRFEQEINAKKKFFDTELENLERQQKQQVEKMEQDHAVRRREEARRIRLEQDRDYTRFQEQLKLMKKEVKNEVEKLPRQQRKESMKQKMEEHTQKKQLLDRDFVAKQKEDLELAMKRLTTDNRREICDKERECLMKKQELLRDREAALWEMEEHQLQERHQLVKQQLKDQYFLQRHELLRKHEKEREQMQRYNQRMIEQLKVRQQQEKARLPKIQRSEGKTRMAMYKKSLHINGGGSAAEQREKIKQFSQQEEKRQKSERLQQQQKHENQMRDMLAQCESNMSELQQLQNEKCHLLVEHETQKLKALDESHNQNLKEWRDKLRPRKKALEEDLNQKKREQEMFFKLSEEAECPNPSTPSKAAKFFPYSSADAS
T7 sequence (Q02763 23-1124): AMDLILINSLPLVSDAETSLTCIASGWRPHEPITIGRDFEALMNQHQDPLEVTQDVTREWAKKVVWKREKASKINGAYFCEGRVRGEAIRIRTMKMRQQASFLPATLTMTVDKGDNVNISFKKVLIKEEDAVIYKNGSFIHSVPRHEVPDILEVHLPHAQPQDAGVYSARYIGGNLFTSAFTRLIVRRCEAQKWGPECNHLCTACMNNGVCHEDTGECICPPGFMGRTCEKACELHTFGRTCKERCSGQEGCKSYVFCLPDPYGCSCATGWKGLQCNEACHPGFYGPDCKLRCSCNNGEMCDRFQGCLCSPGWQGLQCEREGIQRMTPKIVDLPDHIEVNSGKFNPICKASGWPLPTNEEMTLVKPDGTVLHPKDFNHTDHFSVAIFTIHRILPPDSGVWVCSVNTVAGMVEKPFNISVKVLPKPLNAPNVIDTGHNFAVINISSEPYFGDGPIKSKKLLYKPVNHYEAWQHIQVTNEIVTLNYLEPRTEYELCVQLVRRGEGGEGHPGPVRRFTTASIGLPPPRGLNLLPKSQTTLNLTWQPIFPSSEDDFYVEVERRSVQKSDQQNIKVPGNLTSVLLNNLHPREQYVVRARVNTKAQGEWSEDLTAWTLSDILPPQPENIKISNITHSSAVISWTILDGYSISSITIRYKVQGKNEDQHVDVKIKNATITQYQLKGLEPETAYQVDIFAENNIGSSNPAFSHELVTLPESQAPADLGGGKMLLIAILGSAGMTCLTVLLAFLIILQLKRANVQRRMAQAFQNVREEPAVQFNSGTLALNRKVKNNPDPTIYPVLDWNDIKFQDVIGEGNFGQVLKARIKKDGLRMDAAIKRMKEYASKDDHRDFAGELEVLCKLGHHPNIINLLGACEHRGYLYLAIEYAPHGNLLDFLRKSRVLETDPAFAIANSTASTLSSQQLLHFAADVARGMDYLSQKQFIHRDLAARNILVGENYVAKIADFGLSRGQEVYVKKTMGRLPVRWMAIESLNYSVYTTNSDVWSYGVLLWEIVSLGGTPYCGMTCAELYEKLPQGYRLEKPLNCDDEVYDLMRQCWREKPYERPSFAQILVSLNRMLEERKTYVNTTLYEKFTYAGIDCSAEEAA
T1 sequence (Q14004 whole entry): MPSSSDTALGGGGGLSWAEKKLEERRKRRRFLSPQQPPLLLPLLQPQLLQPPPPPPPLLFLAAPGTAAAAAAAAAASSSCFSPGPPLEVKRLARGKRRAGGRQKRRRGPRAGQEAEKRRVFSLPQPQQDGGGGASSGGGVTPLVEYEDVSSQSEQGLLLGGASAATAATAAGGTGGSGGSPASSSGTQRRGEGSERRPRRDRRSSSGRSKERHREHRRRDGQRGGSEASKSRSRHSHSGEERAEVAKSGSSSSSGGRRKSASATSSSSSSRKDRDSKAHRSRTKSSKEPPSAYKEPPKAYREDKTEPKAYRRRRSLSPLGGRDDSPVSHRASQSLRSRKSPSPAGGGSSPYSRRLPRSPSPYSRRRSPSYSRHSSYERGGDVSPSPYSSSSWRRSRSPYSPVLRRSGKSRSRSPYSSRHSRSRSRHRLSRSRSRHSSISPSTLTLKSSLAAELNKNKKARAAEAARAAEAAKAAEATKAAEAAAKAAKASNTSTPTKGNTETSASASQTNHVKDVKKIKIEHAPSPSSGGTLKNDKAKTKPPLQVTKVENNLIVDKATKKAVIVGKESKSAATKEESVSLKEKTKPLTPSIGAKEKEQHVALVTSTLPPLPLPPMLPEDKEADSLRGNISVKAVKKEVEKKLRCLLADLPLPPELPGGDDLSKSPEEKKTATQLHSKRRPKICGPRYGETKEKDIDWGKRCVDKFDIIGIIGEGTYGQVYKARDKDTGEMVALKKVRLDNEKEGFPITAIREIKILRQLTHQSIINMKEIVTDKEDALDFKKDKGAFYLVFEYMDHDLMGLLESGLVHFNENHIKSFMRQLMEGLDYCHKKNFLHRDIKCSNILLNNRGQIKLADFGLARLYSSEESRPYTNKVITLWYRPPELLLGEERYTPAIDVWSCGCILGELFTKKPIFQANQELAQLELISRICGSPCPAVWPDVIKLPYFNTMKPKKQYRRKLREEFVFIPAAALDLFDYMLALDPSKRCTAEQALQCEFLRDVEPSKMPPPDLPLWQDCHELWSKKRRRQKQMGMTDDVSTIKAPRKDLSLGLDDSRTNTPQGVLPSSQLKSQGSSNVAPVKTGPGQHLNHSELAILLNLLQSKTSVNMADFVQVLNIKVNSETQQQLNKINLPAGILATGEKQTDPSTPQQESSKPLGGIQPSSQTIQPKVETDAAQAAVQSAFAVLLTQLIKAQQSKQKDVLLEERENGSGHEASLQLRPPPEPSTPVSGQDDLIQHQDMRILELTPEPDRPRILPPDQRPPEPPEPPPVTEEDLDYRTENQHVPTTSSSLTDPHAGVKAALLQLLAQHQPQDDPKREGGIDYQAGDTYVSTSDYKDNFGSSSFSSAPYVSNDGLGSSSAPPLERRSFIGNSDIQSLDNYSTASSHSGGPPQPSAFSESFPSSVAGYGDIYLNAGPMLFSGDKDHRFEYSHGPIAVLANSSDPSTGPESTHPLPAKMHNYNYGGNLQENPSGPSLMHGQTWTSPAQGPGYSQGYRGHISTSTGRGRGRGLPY

Row | SMILES | GI50 [1] [nM] | GI50 [2] [nM] | GI50 [3] [nM] | GI50 [4] [nM] | % Cont @ 1 uM [5] [%] | AUC(0-t) [6, 17] [ng·h/mL] | Cmax [6, 17] [ng/mL] | half-life [6, 17] [h] | remaining binding at 1 µM [7] [%] | % Cont @ 1 uM [8] [%] | remaining binding at 1 µM [9] [%] | remaining binding at 1 µM [10] [%] | % Cont @ 1 uM [11] [%] | remaining binding at 1 µM [12] [%] | remaining binding at 1 µM [13] [%] | % Cont @ 1 uM [14] [%] | GI50 [15] [nM] | GI50 [16] [nM] | further results
1 | Cc1cn(-c2cc(NC(=O)c3cc(C#Cc4cnc5c(Nc6cnn(C)c6)cccn45)c(C)cc3F)cc(C(C)(C)C#N)c2)cn1 [Example 1, N-(3-(2-cyanopropane-2-yl)-5-(4-methyl-1H-imidazol-1-yl)phenyl)-2-fluoro-4-methyl-5-((8-((1-methyl-1H-pyrazol-4-yl)amino)imidazo[1,2-a]pyridin-3-yl)ethynyl)benzamide] | < 10 | < 10 | 100 | < 10 | 21 | 80300 | 10000 | 2.4 | 1.2 | 0.3 | 6.1 | 1.2 | 0.05 | 0.4 | 3.5 | 33 | > 5000 | < 50 | AUC(0-t) ([6]; vehicle A (NMP:PEG400=5:95)): 138000 ng·h/mL; Cmax ([6]; vehicle A (NMP:PEG400=5:95)): 8570 ng/mL; half-life ([6]; vehicle A (NMP:PEG400=5:95)): 2.5 h
2 | Cc1cn(-c2cc(NC(=O)c3cc(C#Cc4cnc5c(Nc6cnn(C)c6)cccn45)c(C)cc3F)cc(C(F)(F)F)c2)cn1 [Example 4, 2-fluoro-4-methyl-N-(3-(4-methyl-1H-imidazol-1-yl)-5-(trifluoromethyl)phenyl)-5-((8-((1-methyl-1H-pyrazol-4-yl)amino)imidazo[1,2-a]pyridin-3-yl)ethynyl)benzamide] | < 10 | 100 | 100 | 100 | 60 | 30400 | 3360 | 2.1 | 54 | 0.8 | 36 | 27 | 0.2 | 0.7 | 4.1 | 72 | > 5000 | < 50 | 
